# Experimental data published in patent US20200306295A1, “METHOD AND DEVICE FOR ANNIHILATION OF Staphylococcus aureus” (priority 2017, published 2020).
# Test system: 200 kinds of cytokines
# Test: Fold change of 200 cytokines in homogenized wound tissue
# Type: in vivo, Balb/c mice
# Source text: To quantify the physiological condition of the wound tissues, we measured the concentrations of 200 kinds of cytokines (Table. 1) from the supernatant of homogenized tissue solution. Cytokines are small secreted proteins released by cells and have specific effect on the interactions and communications between cells (25).
# To initiate the formation of a skin wound, five groups (n=5) of eight-week old female Balb/c mice (obtained from Harlan Laboratories, Indianapolis, Ind., USA) were disinfected with ethanol (70%) and shaved on the middle of the back (approximately a one-inch by one-inch square region around the injection site) one day prior to infection as described from a reported procedure (3). To prepare the bacterial inoculum, an aliquot of overnight culture of MRSA USA300 was transferred to fresh Tryptic soy broth and shaken at 37° C. until an OD600 value of ˜1.0 was achieved. The cells were centrifuged, washed once with PBS, re-centrifuged, and then re-suspended in PBS. Mice subsequently received an intradermal injection (40 μL) containing 2.40×10^9 CFU/mL MRSA USA300.
# One group of mice was left untreated (negative control). Each group of mice receiving a particular treatment regimen was housed separately in a ventilated cage with appropriate bedding, food, and water. […] Mice were treated twice daily (once every 12 hours) for three days, before they were humanely euthanized via CO2 asphyxiation 12 hours after the last dose was administered. The region around the skin wound was lightly swabbed with ethanol (70%) and excised. The tissue was subsequently homogenized in PBS. The homogenized tissue was then serially diluted in PBS before plating onto mannitol salt agar plates. Plates were incubated for at least 19 hours at 37° C. before viable MRSA CFU/mL were counted for each group. Outlier was removed based upon the Dixon Q Test.
structure (smiles),measurement,setting,value
"OO [H2O2, hydrogen peroxide]",share of 200 cytokines with negative fold change vs untreated,blue light and H2O2-treated group,Over 85%
same,fold change of MBL-2 (mean),"cytokine MBL-2, group mean, wound tissue of MRSA-infected mice",−0.0587
same,fold change of Meteorin (mean),"cytokine Meteorin, group mean, wound tissue of MRSA-infected mice",0.4850
same,fold change of NOV (mean),"cytokine NOV, group mean, wound tissue of MRSA-infected mice",−0.1756
same,fold change of Nope (mean),"cytokine Nope, group mean, wound tissue of MRSA-infected mice",−0.2914
same,fold change of OX40 Ligand (mean),"cytokine OX40 Ligand, group mean, wound tissue of MRSA-infected mice",0.2366
same,fold change of Osteoactivin (mean),"cytokine Osteoactivin, group mean, wound tissue of MRSA-infected mice",0.4709
same,fold change of P-Cadherin (mean),"cytokine P-Cadherin, group mean, wound tissue of MRSA-infected mice",−0.0660
same,fold change of Periostin (mean),"cytokine Periostin, group mean, wound tissue of MRSA-infected mice",−0.5519
same,fold change of PlGF-2 (mean),"cytokine PlGF-2, group mean, wound tissue of MRSA-infected mice",−0.0738
same,fold change of Progranulin (mean),"cytokine Progranulin, group mean, wound tissue of MRSA-infected mice",−0.6229
same,fold change of Prostasin (mean),"cytokine Prostasin, group mean, wound tissue of MRSA-infected mice",1.1226
same,fold change of Renin 1 (mean),"cytokine Renin 1, group mean, wound tissue of MRSA-infected mice",−0.3457
same,fold change of TIM-1 (mean),"cytokine TIM-1, group mean, wound tissue of MRSA-infected mice",−0.1106
same,fold change of Testican 3 (mean),"cytokine Testican 3, group mean, wound tissue of MRSA-infected mice",−0.1883
same,fold change of Tryptase ε (mean),"cytokine Tryptase ε, group mean, wound tissue of MRSA-infected mice",0.3620
same,fold change of 4-1BB,"mean, wound tissue",−0.2733
same,fold change of 6Ckine,"mean, wound tissue",−0.3474
same,fold change of ACE,"mean, wound tissue",−0.8627
same,fold change of ADAMTS1,"mean, wound tissue",0.1068
same,fold change of ALK-1,"mean, wound tissue",−0.1821
same,fold change of ANG-3,"mean, wound tissue",−0.1019
same,fold change of ANGPTL3,"mean, wound tissue",−0.1222
same,fold change of AR,"mean, wound tissue",−0.1343
same,fold change of Activin A,"mean, wound tissue",0.0097
same,fold change of Adiponen,"mean, wound tissue",−0.0278
same,fold change of Artemin,"mean, wound tissue",0.0433
same,fold change of Axl,"mean, wound tissue",−0.1455
same,fold change of B7-1,"mean, wound tissue",0.2808
same,fold change of BAFF R,"mean, wound tissue",0.0988
same,fold change of BLC,"mean, wound tissue",−0.1960
same,fold change of BTC,"mean, wound tissue",0.9018
same,fold change of C5a,"mean, wound tissue",0.1618
same,fold change of CCL6,"mean, wound tissue",−0.3559
same,fold change of CCL28,"mean, wound tissue",−0.6841
same,fold change of CD6,"mean, wound tissue",−0.2795
same,fold change of CD27,"mean, wound tissue",0.1670
same,fold change of CD27L,"mean, wound tissue",0.1373
same,fold change of CD30,"mean, wound tissue",−0.0510
same,fold change of CD30L,"mean, wound tissue",−0.0733
same,fold change of CD36,"mean, wound tissue",−0.4456
same,fold change of CD40,"mean, wound tissue",−0.1007
same,fold change of CD40L,"mean, wound tissue",−0.2549
same,fold change of CD48,"mean, wound tissue",−0.3656
same,fold change of CRP,"mean, wound tissue",−0.2262
same,fold change of CT-1,"mean, wound tissue",−0.3499
same,fold change of CTLA4,"mean, wound tissue",−0.1747
same,fold change of CXCL16,"mean, wound tissue",−0.2162
same,fold change of Chemerin,"mean, wound tissue",−0.2510
same,fold change of Chordin,"mean, wound tissue",−0.0093
same,fold change of Clusterin,"mean, wound tissue",0.1123
same,fold change of Cystatin C,"mean, wound tissue",0.0313
same,fold change of DLL4,"mean, wound tissue",−0.0364
same,fold change of Decorin,"mean, wound tissue",−0.0051
same,fold change of Dkk-1,"mean, wound tissue",−0.4175
same,fold change of Dtk,"mean, wound tissue",−0.3288
same,fold change of E-Cadherin,"mean, wound tissue",−0.1379
same,fold change of E-selectin,"mean, wound tissue",−0.1083
same,fold change of EDAR,"mean, wound tissue",0.0841
same,fold change of EGF,"mean, wound tissue",−0.2293
same,fold change of Endocan,"mean, wound tissue",−0.0335
same,fold change of Endoglin,"mean, wound tissue",−0.6886
same,fold change of Eotaxin,"mean, wound tissue",0.8584
same,fold change of Eotaxin-2,"mean, wound tissue",−0.5961
same,fold change of Epigen,"mean, wound tissue",−0.1588
same,fold change of Epiregulin,"mean, wound tissue",−0.2878
same,fold change of Fas,"mean, wound tissue",−0.3001
same,fold change of Fas L,"mean, wound tissue",−0.2203
same,fold change of Fcg RIIB,"mean, wound tissue",0.2388
same,fold change of Fetuin A,"mean, wound tissue",−0.5133
same,fold change of Flt-3L,"mean, wound tissue",−0.2615
same,fold change of Fractalkine,"mean, wound tissue",0.4416
same,fold change of G-CSF,"mean, wound tissue",−0.4083
same,fold change of GITR,"mean, wound tissue",−0.1455
same,fold change of GITR L,"mean, wound tissue",−0.0425
same,fold change of GM-CSF,"mean, wound tissue",−0.1960
same,fold change of Galectin-1,"mean, wound tissue",−0.1195
same,fold change of Galectin-3,"mean, wound tissue",0.0550
same,fold change of Galectin-7,"mean, wound tissue",−0.3150
same,fold change of Gas 1,"mean, wound tissue",−0.7018
same,fold change of Gas 6,"mean, wound tissue",−0.3085
same,fold change of Granzyme B,"mean, wound tissue",0.2145
same,fold change of Gremlin,"mean, wound tissue",−0.8057
same,fold change of H60,"mean, wound tissue",−0.0250
same,fold change of HAI-1,"mean, wound tissue",−0.0794
same,fold change of HGF,"mean, wound tissue",0.2749
same,fold change of HGF R,"mean, wound tissue",0.0240
same,fold change of I-TAC,"mean, wound tissue",−0.1457
same,fold change of ICAM-1,"mean, wound tissue",−0.0362
same,fold change of IFNg,"mean, wound tissue",−0.2366
same,fold change of IFNg R1,"mean, wound tissue",−0.2832
same,fold change of IGF-1,"mean, wound tissue",0.2487
same,fold change of IGFBP-2,"mean, wound tissue",0.0153
same,fold change of IGFBP-3,"mean, wound tissue",−0.2116
same,fold change of IGFBP-5,"mean, wound tissue",0.0442
same,fold change of IGFBP-6,"mean, wound tissue",−0.2308
same,fold change of IL-1 R4,"mean, wound tissue",0.0090
same,fold change of IL-1a,"mean, wound tissue",0.0141
same,fold change of IL-1b,"mean, wound tissue",0.2075
